Assay results published in ChEMBL document CHEMBL1201862, “PubChem BioAssay data set” (2004).
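Assay format: 96-well plates, 48-hour exposure. Abbreviation: GI50, concentration required for 50% inhibition of growth.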 Calls of active or inactive are those of the source. No stated cut-off is given here; in the data, active = GI50 up to about 1.1 µM and inactive = higher.

Tests used:
Assay in all cases: growth of human tumour cells (NCI), 48 h
DMS-114 = tested on: DMS-114
HOP-18 = tested on: HOP-18
SNB-78 = tested on: SNB-78
LXFL 529 = tested on: LXFL 529
XF498 = tested on: XF498
M19-MEL = tested on: M19-MEL
KM-20L2 = tested on: KM-20L2
DLD-1 = tested on: DLD-1
RXF 631 = tested on: RXF 631

Compound	GI50 (DMS-114)	GI50 (HOP-18)	GI50 (SNB-78)	GI50 (LXFL 529)	GI50 (XF498)	GI50 (M19-MEL)	GI50 (KM-20L2)	GI50 (DLD-1)	GI50 (RXF 631)
CC1(C(=O)NCCN(CCNC(=O)C2(C)CC3(C)CC(C)(C2)C(=O)NC3=O)CCNC(=O)C2(C)CC3(C)CC(C)(C2)C(=O)NC3=O)CC2(C)CC(C)(C1)C(=O)NC2=O (stereo unspecified)	> 100 µM (inactive)	94.4 µM (inactive)	> 100 µM (inactive)	> 100 µM (inactive)	> 100 µM (inactive)	> 100 µM (inactive)	> 100 µM (inactive)		
N#CNc1nc(N)c(-c2ccc(Cl)cc2)c(C(=O)Nc2nccs2)n1	> 100 µM (inactive)	> 100 µM (inactive)	> 100 µM (inactive)	> 100 µM (inactive)	> 100 µM (inactive)	> 100 µM (inactive)	> 100 µM (inactive)	> 100 µM (inactive)	
COc1cc2c(cc1OC)C1Cc3cc(OC)c(OC)cc3C(C2)N1C			> 100 µM (inactive)	> 100 µM (inactive)	> 100 µM (inactive)		> 100 µM (inactive)	> 100 µM (inactive)	
CCOC(=O)NC(=O)c1cn(CCOCCOC(=O)NCCCCCCNC(=O)OCCOCCn2cc(C(=O)NC(=O)OCC)c(=O)[nH]c2=O)c(=O)[nH]c1=O	> 100 µM (inactive)	> 100 µM (inactive)	> 100 µM (inactive)	> 100 µM (inactive)		> 100 µM (inactive)	> 100 µM (inactive)	> 100 µM (inactive)	> 100 µM (inactive)
O=C(OCCOCCOC(=O)c1c[nH]cc1-c1ccccc1)c1c[nH]cc1-c1ccccc1	13.8 µM (inactive)		19.3 µM (inactive)	21.8 µM (inactive)	19.9 µM (inactive)	18.7 µM (inactive)	21.9 µM (inactive)	24.8 µM (inactive)	
O=C1CCC2(c3ccc(Cl)cc3)Nc3cc(Cl)ccc3N12 (stereo unspecified)	7.4 µM (inactive)	1.25 µM (inactive)	15.3 µM (inactive)	10.8 µM (inactive)	2.31 µM (inactive)	12.8 µM (inactive)	15.2 µM (inactive)	5.75 µM (inactive)	14.7 µM (inactive)
C/C=C1\CN2CCc3c([nH]c4ccccc34)C2C=C1CCO (stereo unspecified)	> 340 µM (inactive)			> 340 µM (inactive)	208 µM (inactive)	> 340 µM (inactive)	> 340 µM (inactive)	> 340 µM (inactive)	> 340 µM (inactive)
Cc1nn(C(=O)CC(=O)Nc2ccc(Cl)cc2)c(C)c1/N=N/c1ccccc1C(=O)O	> 100 µM (inactive)		> 100 µM (inactive)	> 100 µM (inactive)		> 100 µM (inactive)	> 100 µM (inactive)	> 100 µM (inactive)	
O=C(O)CNS(=O)(=O)c1ccc(NC(=O)c2cccc([N+](=O)[O-])c2)cc1		> 100 µM (inactive)		> 100 µM (inactive)	> 100 µM (inactive)	> 100 µM (inactive)	> 100 µM (inactive)	> 100 µM (inactive)	> 100 µM (inactive)
CCCCNC(=O)CCN(C(=O)O)S(=O)(=O)c1ccc(NC(=O)c2ccccc2)cc1	> 100 µM (inactive)	> 100 µM (inactive)	> 100 µM (inactive)	> 100 µM (inactive)	> 100 µM (inactive)	79.4 µM (inactive)	> 100 µM (inactive)	> 100 µM (inactive)	
C=C1C(C)C2C(Cc3ccccc3)NC(=O)C23OC(=O)/C=C\CC(=O)CCC(C)C/C=C/C3C1O (stereo unspecified)	2.42 µM (inactive)	0.326 µM (active)	0.36 µM (active)		0.287 µM (active)	4.3 µM (inactive)	3.66 µM (inactive)	1.18 µM (inactive)	
Cc1nc2c(s/c(=N\N)n2-c2ccccc2)c(=O)n1C	> 100 µM (inactive)		> 100 µM (inactive)	> 100 µM (inactive)	> 100 µM (inactive)	> 100 µM (inactive)	> 100 µM (inactive)		
COC1OC(COS(=O)(=O)c2ccc(C)cc2)C(O)C(OS(=O)(=O)c2ccc(C)cc2)C1OS(=O)(=O)c1ccc(C)cc1 (stereo unspecified)	> 100 µM (inactive)	> 100 µM (inactive)	> 100 µM (inactive)	> 100 µM (inactive)		> 100 µM (inactive)	> 100 µM (inactive)	> 100 µM (inactive)	> 100 µM (inactive)
Nc1ccc(C(=O)Nc2ccccc2N)cc1 [DINALINE]	34.5 µM (inactive)	36.7 µM (inactive)	> 100 µM (inactive)	22.5 µM (inactive)	> 100 µM (inactive)	25.7 µM (inactive)		44.3 µM (inactive)	37.4 µM (inactive)
